Laboratory results: patent publication JP2023117892A, “ヘプシジン結合ペプチド” (Public Interest Inc Foundation Oyokyo, priority 2022, dated 2023)
Positions of bridges follow the written chain, without caps; N, C: chain ends. Residues, ends and D or L forms follow the SMILES beside them. No end group written: not given here.

Assays:
[1] = tested on: human ferroportin fused to EGFP (FPN-EGFP) (ヒトのフェロポーチン(FPN)にEGFPを融合させたタンパク質); experiment: Western blot of ferroportin (FPN-EGFP) in HEK293 cells treated with hepcidin; assay type: cell-based; conditions: HEK293 expressing FPN-EGFP
[2] = tested on: HepG2 cells, human liver cancer-derived (ヒト肝癌由来細胞HepG2); experiment: Intracellular iron (ferritin ELISA) in HepG2 cells treated with hepcidin; assay type: cell-based; conditions: Fig. 7A
[3] = tested on: COS-1 cells, monkey kidney-derived fibroblasts (サル腎臓由来線維芽細胞(COS-1)); experiment: Intracellular iron (ferritin ELISA) in FPN-EGFP-expressing COS-1 cells treated with hepcidin; assay type: cell-based; conditions: COS-1 expressing FPN-EGFP, Fig. 7B
[4] = biological target: T1, hepcidin (ヘプシジン) (Homo sapiens, UniProt P81172); experiment: Bio-layer interferometry (BLI) of the peptide on biotinylated hepcidin (Octet K2); assay type: binding; design: ビオチン化ヘプシジン(Bachem社製); purchased Bachem; conditions: peptide 2.5, 4, 6, 8 or 10 μM
T1 sequence (P81172 60-84 limits assumed): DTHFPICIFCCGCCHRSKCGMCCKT

[5] = tested on: renal anemia model mice (腎性貧血モデルマウス); experiment: Effect of HBP in renal anemia model mice (adenine sulfate-induced renal failure); assay type: in vivo, mouse
[6] = tested on: C57/BL6 mice (マウス(C57/BL6)); experiment: Serum iron in mice given hepcidin; assay type: in vivo, mouse; conditions: Fig. 7C
[7] = biological target: T1, hepcidin (ヘプシジン); experiment: Binding of the 12-amino-acid peptide to hepcidin, linear versus cyclised
[8] = biological target: T1, hepcidin (ヘプシジン); experiment: Phage display screening (Ph.D-12 library) on hepcidin-immobilised beads; assay type: binding; design: ビオチン化ヘプシジン(Bachem社製); purchased Bachem; conditions: displayed on M13 phage pIII; most frequent sequence among 64 plaques after the 5th panning
[9] = peptide added simultaneously with hepcidin
[10] = AdS-induced renal anemia mice, HBP day 15 to day 21 (7 times), blood on day 22, versus control (PBS), Fig. 4C-E

In the case of `CSCC[C@@H]1NC(=O)[C@H](CO)NC(=O)[C@@H]2CCCN2C(=O)[C@H](Cc2c[nH]c3ccccc23)NC(=O)[C@H](CCSC)NC(=O)[C@H](CC(=O)O)NC(=O)[C@H](Cc2c[nH]c3ccccc23)NC(=O)[C@H](CO)NC(=O)[C@@H](NC(=O)[C@H](C)NC(C)=O)CSSC[C@@H](C(=O)NCC(N)=O)NC(=O)CNC(=O)[C@H](CCC(=O)O)NC(=O)[C@H](C)NC(=O)[C@H](CCCCN)NC(=O)[C@H](Cc2c[nH]c3ccccc23)NC(=O)[C@H](CC(=O)O)NC1=O` [HBP, ACSWDMWPSMDWKAEGCG] (Ac-ACSWDMWPSMDWKAEGCG-NH2; disulfide 2-17), the “amount of ferroportin (FPN-EGFP)” value ([1]; peptide added simultaneously with human hepcidin, Fig. 6 lanes 4 and 5) is reported as “FPN-EGFP量の低下が抑制された”, the “intracellular iron (as ferritin)” value [2, 9] is reported as “細胞内鉄量の増加が抑制された” and the “intracellular iron (as ferritin)” value [3, 9] is reported as “細胞内鉄量の増加が抑制された”. The Kd ([4]; biotinylated hepcidin on streptavidin sensor chip, read-out: dissociation constant) was 29 nM, the “specific binding to hepcidin” value ([4]; Fig. 3) was “ヘプシジンに特異的に結合することが確認された” and the “hematocrit (HCt)” value [5, 10] was “有意に上昇した”. For the same compound, the “hemoglobin (Hb)” value [5, 10] was “有意に上昇した”, the “red blood cell count (RBC)” value [5, 10] was “有意に上昇した” and the “blood biochemistry showing improvement of anemia and renal failure” value ([5]; AdS-induced renal failure mice, HBP day 15 to day 21, day 22, BUN, CRE, serum iron, TSAT, ferritin, CRP, hepcidin, EPO, Fig. 5A-H) was “貧血の改善及び腎不全の改善を示す結果が確認された”. For the same compound, the serum iron ([6]; peptide given simultaneously with hepcidin) was “血中鉄量の減少が抑制された”.
With “ヘプシジン: human hepcidin (Peptide Institute, Inc.) (DTHFPICIFCCGCCHRSKCGMCCKT; ends and bridges not checked; cysteine pairing not given here; UniProt P81172 60-84, looked up) [reference compound]” the “amount of ferroportin (FPN-EGFP)” value ([1]; hepcidin added alone, Fig. 6 lane 3) was “フェロポーチンの量(FPN-EGFP量)は低下した”, the “intracellular iron (as ferritin)” value ([2]; hepcidin alone) was “細胞内の鉄量は増加した” and the “intracellular iron (as ferritin)” value ([3]; hepcidin alone) was “細胞内の鉄量は増加した”. The serum iron ([6]; hepcidin alone) was “血中の鉄量は減少した”.
With WDMWPSMDWKAE the binding to hepcidin ([7]; cyclised form) was “ヘプシジンに特異的に結合する”, the binding to hepcidin ([7]; linear form) was “線状ではヘプシジンに結合しない” and the “possibility of specific binding to hepcidin” value [8] was “ヘプシジンに特異的に結合する可能性が示された”.
